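Protocol summary: plate cells (96-well), add compound at 5 concentrations, incubate 48 h, interpolate endpoints linearly. At the GI50, growth is halved. TGI: total growth inhibition.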

Experiment in all cases: NCI anticancer screen, dose series, 48 h
The subject of assay [1] is NCI-H226 lung.
Assay [2] has as its system U251 CNS.
In assay [3] the test system is OVCAR-5 ovarian.
Assay [4] concerns KM12 colon.
The subject of assay [5] is HS 578T breast.
In assay [6] the test system is T-47D breast.
The subject of assay [7] is SW-620 colon.
The subject of assay [8] is HT29 colon.

`NCCNCCNCCN`: the GI50 in assay [1], in assay [2], in assay [3], in assay [4], in assay [5] and in assay [6] was over 100 µM each time. Moreover, the GI50 in assay [7] and in assay [8] was over 100 µM each time. The TGI in assay [1], in assay [2], in assay [3], in assay [4], in assay [5] and in assay [6] was over 100 µM each time. The TGI in assay [7] and in assay [8] was over 100 µM in each case.

As for `CC[C@@H](c1ccc(O)c(O)c1)[C@@H](CC)c1ccc(O)c(O)c1`, the GI50 in assay [1] was 21.1 µM; in assay [2], 15.8 µM; in assay [3] it was 19.5 µM; in assay [4] it was 18.5 µM; in assay [5], 73.3 µM; in assay [6], 2.48 µM. Moreover, the GI50 is 2.4 µM in assay [7] and 11.9 µM in assay [8]. Besides, the TGI in assay [1] is 44 µM; in assay [2], 37.8 µM; in assay [3], 37.8 µM; in assay [4], 35.1 µM; in assay [5], over 100 µM; in assay [6], 7.96 µM. Further, the TGI in assay [7] was 5.67 µM; in assay [8], 58.2 µM.

Consider `CN1CCN(C(=O)COc2ccc(C34CC5CC(CC(C5)C3)C4)cc2)CC1`, for which the GI50 in assay [1] is 14 µM; in assay [2], 10.8 µM; in assay [3] it was 17.6 µM; in assay [4] it was 14.8 µM; in assay [5], 15.6 µM; in assay [6] it was 12.9 µM. Further, the GI50 is 12.8 µM in assay [7] and 4.66 µM in assay [8]. Moreover, the TGI turned out to be 37.4 µM in assay [1]; 25 µM in assay [2]; 44.6 µM in assay [3]; 32.4 µM in assay [4]; 45.6 µM in assay [5]; 39.2 µM in assay [6]. Also, the results for the TGI in assay [7] and in assay [8] were 29.6 µM and 19.1 µM, respectively.

As to `CC1(C)[C@@H](NOCCCN)CC[C@]2(C)[C@H]3C(=O)C=C4[C@@H]5C[C@](C)(C(=O)O)CC[C@]5(C)CC[C@@]4(C)[C@]3(C)CC[C@@H]12`, the GI50 in assay [1] is 5.46 µM; in assay [2], 4.49 µM; in assay [3], 14.1 µM; in assay [4] it was 3.27 µM; in assay [5], 4.23 µM; in assay [6], 3.42 µM. For the same compound, the GI50 in assay [7] is 3.41 µM; in assay [8], 3.45 µM. Also, the TGI is 19.2 µM in assay [1]; 25.4 µM in assay [2]; 28.1 µM in assay [3]; 12.6 µM in assay [4]; 50 µM in assay [5]; 22.4 µM in assay [6]. For the same compound, the results for the TGI in assay [7] and in assay [8] were 14 µM and 16.1 µM, respectively.

Consider `C=C1C(=O)O[C@H]2[C@H]1CC/C(CNC(=O)c1cc3ccccc3[nH]1)=C\CC[C@@]1(C)O[C@@H]21`, for which the GI50 is 2.58 µM in assay [1]; 1.68 µM in assay [2]; 2.37 µM in assay [3]; 2.08 µM in assay [4]; 6.62 µM in assay [5]; 1.65 µM in assay [6]. In addition, the GI50 was 0.523 µM in assay [7] and 1.11 µM in assay [8]. Further, the TGI was 10.7 µM in assay [1]; 3.26 µM in assay [2]; 6.26 µM in assay [3]; 5 µM in assay [4]; 38.7 µM in assay [5]; 4.8 µM in assay [6]. For the same compound, the TGI came to 2.01 µM in assay [7] and 3.09 µM in assay [8].

As to `COc1cc(-c2nc3sccn3c2-c2ccnc(NCCNS(=O)(=O)c3ccc(F)cc3)n2)ccc1F`, the GI50 is 1.95 µM in assay [1]; 4.23 µM in assay [2]; 6.51 µM in assay [3]; 1.9 µM in assay [4]; 1.88 µM in assay [5]; 0.634 µM in assay [6]. Moreover, the GI50 is 5.05 µM in assay [7] and 1.64 µM in assay [8]. For the same compound, the TGI in assay [1] is 6.05 µM; in assay [2], over 100 µM; in assay [3], over 100 µM; in assay [4], over 100 µM; in assay [5], over 100 µM; in assay [6], 35.9 µM. Moreover, the TGI in assay [7] and in assay [8] was over 100 µM throughout.

Take `COc1ccccc1NC(=O)c1cc2cc(Br)ccc2cc1O`: the GI50 in assay [1] was 1.65 µM; in assay [2], 2.65 µM; in assay [3] it was 3.48 µM; in assay [4], 3.17 µM; in assay [5], 2.61 µM; in assay [6], 2 µM. Also, the GI50 in assay [7] is 3.12 µM; in assay [8], 7.73 µM. Besides, the TGI was 6.06 µM in assay [1]; 9.58 µM in assay [2]; 12.9 µM in assay [3]; 10.8 µM in assay [4]; 10.7 µM in assay [6]; 11.1 µM in assay [7]. This compound also had a TGI in assay [8] of 21.5 µM.

As to `COC(=O)[C@]12CC[C@@H](C)[C@H](C)[C@@H]1C1=CC[C@@H]3[C@@]4(C)C[C@@H](O)[C@H](O)[C@@](C)(CO)[C@@H]4[C@H](O)C[C@@]3(C)[C@]1(C)CC2`, the GI50 is 17.8 µM in assay [1]; 17.2 µM in assay [2]; 17.9 µM in assay [3]; 12.3 µM in assay [4]; 18.5 µM in assay [5]; 7.23 µM in assay [6]. Moreover, the values for the GI50 in assay [7] and in assay [8] were 18.8 µM and 17.1 µM, respectively. In addition, the TGI came to 45 µM in assay [1]; 40.9 µM in assay [2]; 36.4 µM in assay [3]; 26.4 µM in assay [4]; 45.8 µM in assay [5]; 29.1 µM in assay [6]. The TGI in assay [7] came to 39.4 µM; in assay [8] it was 36.3 µM.

For `CN(C)c1ccc(/C=N/NC(=S)Nc2ccccc2)cc1`, the TGI in assay [1], in assay [2], in assay [3], in assay [4], in assay [5] and in assay [6] was over 100 µM throughout. Moreover, the TGI in assay [7] and in assay [8] was over 100 µM in each case.

The values are drawn from PubChem BioAssay (NCI).
